Measured values as given in patent US8735391B2, “Synthesis of functionalized octahydro-isoquinolin-1-one-8-carboxamides, octahydro-isoquinolin-1-one-8-carboxylic esters and analogs, and therapeutic methods” (University of Kansas, priority 2008, dated 2014).

What follows are molecules tested against KOR (Homo sapiens, UniProt P41145) (assay: Opioid secondary binding, KOR (Tables 4, 5, 8, 9)). Conditions: Opioid secondary binding activity for Formula 10 analogs; read-out: KOR, Ki.
Sequence of KOR (P41145 whole entry): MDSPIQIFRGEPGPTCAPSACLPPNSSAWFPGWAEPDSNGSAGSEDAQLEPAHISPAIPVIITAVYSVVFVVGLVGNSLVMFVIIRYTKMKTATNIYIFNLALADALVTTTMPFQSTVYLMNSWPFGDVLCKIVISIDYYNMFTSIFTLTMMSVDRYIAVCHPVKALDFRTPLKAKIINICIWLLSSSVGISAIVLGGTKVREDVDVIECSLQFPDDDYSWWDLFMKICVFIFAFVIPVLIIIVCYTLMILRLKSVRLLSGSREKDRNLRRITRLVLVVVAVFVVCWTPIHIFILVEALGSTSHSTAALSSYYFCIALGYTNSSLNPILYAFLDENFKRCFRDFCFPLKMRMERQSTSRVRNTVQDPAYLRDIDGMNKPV

Structure (SMILES) | Ki [µM]
O=C(OCc1ccccc1)C1CCCN1C(=O)C1CC=CC2CCN(Cc3ccc(Cl)cc3)C(=O)C21 (mixture of isomers) [compound 11808] | 2.29
COC(=O)C(CCSC)NC(=O)C1CC=CC2CCN(Cc3ccccc3)C(=O)C21 (mixture of isomers) [compound 11816] | 2.63
COC(=O)C(C)NC(=O)C1CC=CC2CCN(Cc3ccccc3)C(=O)C21 (mixture of isomers) [compound 11818] | 6.17
O=C(OCc1ccccc1)C(Cc1ccccc1)NC(=O)C1CC=CC2CCN(Cc3ccccc3)C(=O)C21 (mixture of isomers) [compound 11819] | 1.29
CCOC(=O)CCC(NC(=O)C1CC=CC2CCN(C3CCCCC3)C(=O)C21)C(=O)OCC (mixture of isomers) [compound 11821] | 4.71
COC(=O)C(CCSC)NC(=O)C1CC=CC2CCN(C3CCCCC3)C(=O)C21 (mixture of isomers) [compound 11822] | 4.5
O=C(OCc1ccccc1)C(Cc1ccccc1)NC(=O)C1CC=CC2CCN(C3CCCCC3)C(=O)C21 (mixture of isomers) [compound 11825] | 1.11
O=C(OCc1ccccc1)C(Cc1ccccc1)NC(=O)C1CC=CC2CCN(CCc3ccccc3)C(=O)C21 (mixture of isomers) [compound 11831] | 1.53
CC(NC(=O)C1CC=CC2CCN(C3CCCCC3)C(=O)C21)c1ccccc1 (mixture of isomers) [compound 11836] | 0.599
CC(NC(=O)C1CC=CC2CCN(CCc3ccccc3)C(=O)C21)c1ccccc1 (mixture of isomers) [compound 11848] | 3.49
CC(NC(=O)C1CC=CC2CCN(Cc3ccccc3)C(=O)C21)c1ccccc1 (mixture of isomers) [compound 11854] | 0.712
O=C(O)C(Cc1ccccc1)NC(=O)C1CC=CC2CCN(Cc3ccccc3)C(=O)C21 (mixture of isomers) [compound 11902] | 3.38
O=C(Nc1cccc(Cl)c1)[C@@H]1CC=C[C@@H]2CCN(c3ccccc3)C(=O)[C@@H]21 (racemic) [compound 10821] | 0.42
O=C(Nc1ccc(C(F)(F)F)cc1)[C@@H]1CC=C[C@@H]2CCN(c3ccccc3)C(=O)[C@@H]21 (racemic) [compound 10822] | 0.786
O=C(Nc1ccc(F)c(F)c1)[C@@H]1CC=C[C@@H]2CCN(c3ccccc3)C(=O)[C@@H]21 (racemic) [compound 10823] | 0.375
O=C(Nc1c(F)cccc1F)[C@@H]1CC=C[C@@H]2CCN(c3ccccc3)C(=O)[C@@H]21 (racemic) [compound 10824] | 5
O=C(Nc1ccc(Cl)cc1Cl)[C@@H]1CC=C[C@@H]2CCN(c3ccccc3)C(=O)[C@@H]21 (racemic) [compound 10826] | 0.287
O=C(Nc1ccc(Cl)cc1Cl)[C@@H]1CC=C[C@@H]2CCN(CCc3ccccc3)C(=O)[C@@H]21 (racemic) [compound 10834] | 6.49
COc1ccc(NC(=O)[C@@H]2CC=C[C@@H]3CCN(Cc4ccc(Cl)cc4)C(=O)[C@@H]32)cc1 (racemic) [compound 10835] | 5.07
O=C(Nc1cccc(Cl)c1)[C@@H]1CC=C[C@@H]2CCN(Cc3ccc(Cl)cc3)C(=O)[C@@H]21 (racemic) [compound 10836] | 0.225
O=C(Nc1ccc(C(F)(F)F)cc1)C1CC=CC2CCN(Cc3ccc(Cl)cc3)C(=O)C21 (racemic) [compound 10837] | 2.53
O=C(Nc1cccc(C(F)(F)F)c1)C1CC=CC2CCN(Cc3ccc(Cl)cc3)C(=O)C21 (racemic) [compound 10838] | 1.51
O=C(Nc1ccc(F)c(F)c1)C1CC=CC2CCN(Cc3ccc(Cl)cc3)C(=O)C21 (racemic) [compound 10839] | 0.652
O=C(Nc1ccc(Cl)c(C(F)(F)F)c1)C1CC=CC2CCN(Cc3ccc(Cl)cc3)C(=O)C21 (racemic) [compound 10841] | 0.465
CC(C)N1CCC2C=CCC(C(=O)Nc3cccc(Cl)c3)C2C1=O (racemic) [compound 10844] | 2.13
CC(C)N1CCC2C=CCC(C(=O)Nc3cccc(C(F)(F)F)c3)C2C1=O (racemic) [compound 10846] | 0.621
